Measurements: patent publication US6426360B1, “4,5-substituted imidazolyl compounds for the treatment of inflammation” (G D Searle & Co., priority 1994, dated 2002)
Marks after values point to notes of the source that are not given here.

Columns and labels:
[1] = target: T1, Human COX I (Homo sapiens, UniProt P23219); test: COX I activity in vitro (PGE2 ELISA, recombinant enzyme); format: biochemical; conditions: arachidonic acid 10 μM, pre-incubation 10-20 minutes; read-out: Human COX I ID50
T1 construct: A 2.0 kb fragment containing the coding region of either human or murine COX-I or human or murine COX-II; made in house; host or cells: SF9 insect cells (recombinant baculovirus, transfer vector pVL1393)
Procedure: (§1) A 2.0 kb fragment containing the coding region of either human or murine COX-I or human or murine COX-II was cloned into a BamH1 site of the baculovirus transfer vector pVL1393 (Invitrogen) to generate the baculovirus transfer vectors for COX-I and COX-II in a manner similar to the method of D. R. O'Reilly et al (Baculovirus Expression Vectors: A Laboratory Manual (1992)). Recombinant baculoviruses were isolated by transfecting 4 μg of baculovirus transfer vector DNA into SF9 insect cells ([…]) along with 200 ng of linearized baculovirus plasmid DNA by the calcium phosphate method. See M. D. Summers and G. E. Smith, A Manual of Methods for Baculovirus Vectors and Insect Cell Culture Procedures, Texas Agric. Exp. Station Bull. 1555 (1987). Recombinant viruses were purified by three rounds of plaque purification and high titer (10E7-10E8 pfu/ml), stocks of virus were prepared. For large scale production, SF9 insect cells were infected in 10 liter fermentors (0.5×10^6/ml) with the recombinant baculovirus stock such that the multiplicity of infection was 0.1. After 72 hours the cells were centrifuged and the cell pellet homogenized in Tris/Sucrose (50 mM: 25%, pH 8.0) containing 1% 3-[(3-cholamidopropyl)dimethylammonio]-1-propanesulfonate (CHAPS). The homogenate was centrifuged at 10,000×G for 30 minutes, and the resultant supernatant was stored at −80° C. before being assayed for COX activity.
(§2) COX activity was assayed as PGE2 formed/μg protein/time using an ELISA to detect the prostaglandin released. CHAPS-solubilized insect cell membranes containing the appropriate COX enzyme were incubated in a potassium phosphate buffer (50 mM, pH 8.0) containing epinephrine, phenol, and heme with the addition of arachidonic acid (10 μM). Compounds were pre-incubated with the enzyme for 10-20 minutes prior to the addition of arachidonic acid. Any reaction between the arachidonic acid and the enzyme was stopped after ten minutes at 37° C./room temperature by transferring 40 μl of reaction mix into 160 μl ELISA buffer and 25 μM indomethacin. The PGE2 formed was measured by standard ELISA technology (Cayman Chemical).

[2] = target: T2, Human COX II (Homo sapiens, UniProt P35354); test: COX II activity in vitro (PGE2 ELISA, recombinant enzyme); format: biochemical; conditions: arachidonic acid 10 μM, pre-incubation 10-20 minutes; read-out: Human COX II ID50
T2 construct: A 2.0 kb fragment containing the coding region of either human or murine COX-I or human or murine COX-II; made in house; host or cells: SF9 insect cells (recombinant baculovirus, transfer vector pVL1393)
T2 sequence (P35354 18-604): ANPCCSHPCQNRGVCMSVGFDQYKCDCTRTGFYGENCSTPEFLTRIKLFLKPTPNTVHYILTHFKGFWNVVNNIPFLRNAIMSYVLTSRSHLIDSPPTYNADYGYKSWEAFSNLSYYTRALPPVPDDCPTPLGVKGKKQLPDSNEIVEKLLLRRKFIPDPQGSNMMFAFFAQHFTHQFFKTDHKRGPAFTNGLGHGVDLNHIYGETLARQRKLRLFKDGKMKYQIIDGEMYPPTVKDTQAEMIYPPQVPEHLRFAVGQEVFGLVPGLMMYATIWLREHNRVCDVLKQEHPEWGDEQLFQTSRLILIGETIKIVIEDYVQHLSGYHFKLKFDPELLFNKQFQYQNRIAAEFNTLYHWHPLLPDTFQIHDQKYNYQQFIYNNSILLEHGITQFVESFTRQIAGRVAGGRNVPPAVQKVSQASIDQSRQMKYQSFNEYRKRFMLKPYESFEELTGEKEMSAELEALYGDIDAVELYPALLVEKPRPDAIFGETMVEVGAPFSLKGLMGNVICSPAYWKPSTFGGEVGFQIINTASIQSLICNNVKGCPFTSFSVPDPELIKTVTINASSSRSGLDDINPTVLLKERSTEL
Procedure: The COX II inhibition activity of the compounds of this invention illustrated in the Examples was determined by the following methods.
as §1, §2

[3] = test system: carrageenan foot edema; test: Rat Carrageenan Foot Pad Edema Test; format: in vivo; conditions: 30 mg/kg body weight, oral, dosed 1 h before carrageenan, foot volume 3 h after carrageenan
Procedure: The carrageenan foot edema test was performed with materials, reagents and procedures essentially as described by Winter, et al., (Proc. Soc. Exp. Biol. Med., 111, 544 (1962)). Male Sprague-Dawley rats were selected in each group so that the average body weight was as close as possible. Rats were fasted with free access to water for over sixteen hours prior to the test. The rats were dosed orally (1 ml) with compounds suspended in vehicle containing 0.5% methylcellulose and 0.025% surfactant, or with vehicle alone. One hour later a subplantar injection of 0.1 ml of 1% solution of carrageenan/sterile 0.9% saline was administered and the volume of the injected foot was measured with a displacement plethysmometer connected to a pressure transducer with a digital indicator. Three hours after the injection of the carrageenan, the volume of the foot was again measured. The average foot swelling in a group of drug-treated animals was compared with that of a group of placebo-treated animals and the. percentage inhibition of edema was determined (Otterness and Bliven, Laboratory Models for Testing NSAIDs, in Non-steroidal Anti-Inflammatory Drugs, (J. Lombardino, ed. 1985)).

[4] = test system: carrageenan-induced hyperalgesic foot withdrawal; test: Rat Carrageenan-induced Analgesia Test; format: in vivo; conditions: oral, 3 h after carrageenan
Procedure: The analgesia test using rat carrageenan was performed with materials, reagents and procedures essentially as described by Hargreaves, et al., (Pain, 32, 77 (1988)). Male Sprague-Dawley rats were treated as previously described for the Carrageenan Foot Pad Edema test. Three hours after the injection of the carrageenan, the rats were placed in a special plexiglass container with a transparent floor having a high intensity lamp as a radiant heat source, positionable under the floor. After an initial twenty minute period, thermal stimulation was begun on either the injected foot or on the contralateral uninjected foot. A photoelectric cell turned off the lamp and timer when light was interrupted by paw withdrawal. The time until the rat withdraws its foot was then measured. The withdrawal latency in seconds was determined for the control and drug-treated groups, and percent inhibition of the hyperalgesic foot withdrawal determined.

T1 sequence (P23219 24-599): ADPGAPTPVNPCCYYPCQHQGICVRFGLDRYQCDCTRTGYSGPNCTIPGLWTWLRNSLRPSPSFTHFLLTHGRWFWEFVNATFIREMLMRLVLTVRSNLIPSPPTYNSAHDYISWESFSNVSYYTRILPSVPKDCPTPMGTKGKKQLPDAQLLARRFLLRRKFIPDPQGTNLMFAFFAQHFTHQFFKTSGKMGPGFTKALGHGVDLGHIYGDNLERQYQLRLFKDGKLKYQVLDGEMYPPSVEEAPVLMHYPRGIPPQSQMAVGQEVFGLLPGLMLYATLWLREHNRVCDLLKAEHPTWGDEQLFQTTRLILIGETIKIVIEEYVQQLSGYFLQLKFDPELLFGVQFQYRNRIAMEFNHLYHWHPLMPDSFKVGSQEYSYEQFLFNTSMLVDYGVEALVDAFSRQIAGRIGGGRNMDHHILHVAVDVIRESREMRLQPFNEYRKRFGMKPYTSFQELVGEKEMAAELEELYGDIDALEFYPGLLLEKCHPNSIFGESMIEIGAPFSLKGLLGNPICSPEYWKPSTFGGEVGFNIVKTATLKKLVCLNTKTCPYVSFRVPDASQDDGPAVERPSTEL

With `CC(=O)n1c(C(F)(F)F)nc(-c2ccc(S(C)(=O)=O)cc2)c1-c1cc(C)cc(Cl)c1` [Example 58, 1-[5-(3-Chloro-5-methylphenyl)-4-[4-(methylsulfonyl)phenyl]-2-(trifluoromethyl)-1H-imidazol-1-yl]ethanone] the IC50 [1] was > 100 µM, the IC50 [2] was 0.2 µM and the melting point was 257 °C. The “RAT PAW EDEMA % Inhibition” value [3] was 14%.
For `CS(=O)(=O)c1ccc(-c2nc(C(F)(F)F)[nH]c2-c2ccc(F)cc2)cc1` [Example 1, 5-(4-Fluorophenyl)-4-(4-methylsulfonylphenyl)-2-trifluoromethyl-1H-imidazole], the “ANALGESIA % Inhibition” value ([4]; 30 mg/kg body weight) was 25%, the IC50 [1] was > 100 µM and the IC50 [2] was 0.2 µM. For the same molecule, the melting point was 249 to 250 °C (dec.) and the “RAT PAW EDEMA % Inhibition” value [3] was 22%.
In the case of `CC(C)c1nc(-c2ccc(S(C)(=O)=O)cc2)c(-c2ccc(F)cc2)[nH]1` [Example 5, 5-(4-Fluorophenyl)-2-isopropyl-4-(4-methylsulfonylphenyl)-1H-imidazole], the IC50 [1] is reported as > 100 µM, the IC50 [2] is reported as 1.2 µM and the melting point is reported as 214 to 215 °C.
For `CS(=O)(=O)c1ccc(-c2nc(-c3ccoc3)[nH]c2-c2ccc(F)cc2)cc1` [Example 20, 5-(4-Fluorophenyl)-2-(3-furyl)-4-(4-methylsulfonylphenyl)-1H-imidazole], the IC50 [1] was > 100 µM, the IC50 [2] was 40.7 µM and the melting point was 233 to 235 °C (dec.).
With `CS(=O)(=O)c1ccc(-c2nc(C(F)(F)F)[nH]c2C2CCCCCC2)cc1` [Example 72, 5-[4-Cycloheptyl)-4-[4-(methylsulfonyl)phenyl]-2-(trifluoromethyl)-1H-imidazole] the IC50 [1] was > 100 µM, the IC50 [2] was 3 µM and the melting point was 206 to 207 °C.
With `CS(=O)(=O)c1ccc(-c2nc(COc3ccccc3)[nH]c2-c2ccc(F)cc2)cc1` [Example 2, 5-(4-Fluorophenyl)-4-(4-methylsulfonylphenyl)-2-phenoxymethyl-1H-imidazole] the IC50 [1] was > 100 µM, the IC50 [2] was 0.2 µM and the melting point was 189 to 190 °C.
For `CS(=O)(=O)c1ccc(-c2nc(C(F)(F)F)[nH]c2-c2cccs2)cc1` [Example 70, 4-[4-(Methylsulfonyl)phenyl]-5-(2-thiophenyl)-2-(trifluoromethyl)-1H-imidazole], the “ANALGESIA % Inhibition” value ([4]; 50 mg/kg body weight) was 29* %, the IC50 [1] was > 100 µM and the IC50 [2] was 1.4 µM. The melting point was 95 to 97 °C and the “RAT PAW EDEMA % Inhibition” value [3] was 27%.
For `CS(=O)(=O)c1ccc(-c2nc(CO)[nH]c2-c2ccc(F)cc2)cc1` [Example 9, 5-(4-Fluorophenyl)-2-hydroxymethyl-4-[4-(methylsulfonyl)phenyl]imidazole], the IC50 [1] was > 100 µM, the IC50 [2] was 5.1 µM and the melting point was 115 to 117 °C.
For `CS(=O)(=O)c1ccc(-c2nc(-c3cc4ccccc4o3)[nH]c2-c2ccc(F)cc2)cc1` [Example 4, 2-(2-Benzofuryl)-5-(4-fluorophenyl)-4-(4-methylsulfonylphenyl)-1H-imidazole], the IC50 [1] was > 100 µM, the IC50 [2] was 0.5 µM and the melting point was 235 to 237 °C.
`CS(=O)(=O)c1ccc(-c2nc(C(F)(F)F)[nH]c2-c2ccc(Br)s2)cc1` [Example 47, 5-(5-Bromothien-2-yl)-4-[4-(methylsulfonyl)phenyl]-2-(trifluoromethyl)-1H-imidazole] gave an IC50 [1] of 12.9 µM, an IC50 [2] of 0.1 µM and a melting point of 261 to 262 °C.
With `COC(C)c1nc(-c2ccc(F)cc2)c(-c2ccc(S(C)(=O)=O)cc2)[nH]1` (centres unmarked) [Example 94, 4-(4-Fluorophenyl)-2-(1-methoxyethyl)-5-[4-(methyl-sulfonyl)phenyl]-1H-imidazole] the IC50 [1] was > 100 µM, the IC50 [2] was 6.4 µM and the melting point was 212 °C.
Work on `CS(=O)(=O)c1ccc(-c2[nH]c(S)nc2-c2ccc(F)cc2)cc1` [Example 49, 4-(4-Fluorophenyl)-5-[4-(methylsulfonyl)phenyl]-1H-imidazole-2-thiol] yielded an IC50 [1] of 10.8 µM, an IC50 [2] of 55 µM and a melting point of 158 to 161 °C.
In the case of `CC(F)(F)c1nc(-c2ccc(F)cc2)c(-c2ccc(S(C)(=O)=O)cc2)[nH]1` [Example 95, 2-(1,1-Difluoroethyl)-4-(4-fluorophenyl)-5-[4-(methyl-sulfonyl)phenyl]-1H-imidazole], the IC50 [1] is reported as > 100 µM, the IC50 [2] is reported as 2.4 µM and the melting point is reported as 211 °C.
